This note sets out measurements from patent publication US20230192772A1, “ANTIMICROBIAL PEPTIDES AND USES THEREOF” (SORBONNE UNIVERSITE, priority 2016, published 2023).

Holding throughout (type): cell-based
The test system of series [1] is immune cells obtained from mouse bone marrow. Briefly: Cytotoxic effects on immune cells obtained from mouse bone marrow. As to conditions: 12.5 µM; 2 hours. As to the method: (§1) The mouse immune cells are obtained from C57BL/6 or Balb/c mouse bone marrow. The peptides are incubated at 37° C., 5% CO2 in the presence of 500,000 immune cells in RPMI medium at varied concentrations for 2 hours. Peptide-free cells are used as the negative control and cells in the presence of DMSO (30%) are used as the positive control. After incubation, the cells are washed then labelled with Trypan blue so as to measure the cell viability by microscope counting. The LC50 is then calculated as being the concentration of DA2N, K12A and DANa peptides inducing the death of 50% of the immune cells.

In series [2] the test system is Enterococcus faecalis CIP 103015. Briefly: MIC/MBC (Example 10, MH medium). Conditions: Table 5; E. faecalis CIP 103015. As to the method:
(§2) The MIC is determined using a growth inhibition test in liquid medium. The MIC is defined as being the lowest peptide concentration capable of inhibiting the bacterial strain tested, after incubation for 18 h at 37° C. The test was carried out in a sterile microtitration plate containing 96 wells. A series of increasing concentrations of each peptide (0.2 to 100 µM) was prepared beforehand in sterile MilliQ water. In each well, 10 µL of peptide was incubated with 90 µL of bacterial suspension (10^7 cfu/mL) in yeast extract-free LB medium. The microplate was incubated at 37° C. for 18 h. The bacterial growth was evaluated by measuring the OD at 620 nm using a plate reader.
(§3) The negative growth inhibition control was obtained by replacing the solution containing the peptide by sterile MilliQ water. The positive control suitable for completely inhibiting the growth of the bacterial strains was obtained by replacing the solution containing the peptide by 10 µL of formaldehyde.
(§4) The results are interpreted by calculating the percentage of bacterial growth in each well according to the formula:
(§5) %Growth = (OD well - OD of T0)/(OD of T100-OD of T0)*100 where
(§6) • OD of T100 = OD of growth control (bacterial suspension free from sample under test, 100% growth), • OD of T0 = OD of sterility control (culture medium + bacterium + 10 µL formaldehyde, 0% growth) and • OD well = OD of well for which it is sought to calculate the growth percentage (bacterial suspension + peptide under test).
(§7) The MBC is defined as being the minimum peptide concentration leaving no surviving bacteria of the inoculum after incubation at 37° C. for 24 hours. This test consists of smearing the contents of the well wherein the peptide has inhibited bacterial growth on a Petri dish (LB agar), followed by incubation for 24 h at 37° C.
(§8) A 10 mL preculture in Muller-Hinton (MH) medium is prepared by inoculating a colony of the bacterial strain of interest. The preculture is incubated at 37° C. under stirring overnight. The culture is subcultured to 1:100 under the same conditions. The culture concentration is evaluated by measuring the turbidity at 600 nm (OD600 nm 1.0 = 5 × 10^8 CFU/mL for E. coli (Gram-negative bacteria) and 1.5 × 10^8 CFU/mL for S. aureus (Gram-positive bacteria). Once the exponential growth phase (OD600 nm = 0.3 - 0.7) has been achieved, the cultures are diluted in MH medium so as to obtain 10^6 CFU/mL (final inoculum concentration).
(§9) The MIC and the MBC were determined as per the protocol described in part 2.1 of Example 2.

In series [3] the test system is Escherichia coli ATCC 8739. The experiment in a line: MIC/MBC (Example 10, MH medium). Conditions: Table 5; E. coli ATCC 8739. As to the method:
as §2, §3, §4, §5, §6, §7, §8, §9

For series [4], the system named is Pseudomonas aeruginosa ATCC 9027. The experiment in a line: MIC/MBC (Example 10, MH medium). As to conditions: Table 5; P. aeruginosa ATCC 9027. As to the method:
as §2, §3, §4, §5, §6, §7, §8, §9

Series [5] has as its system Staphylococcus aureus ATCC 6538. The experiment in a line: MIC/MBC (Example 10, MH medium). As to conditions: Table 5; S. aureus ATCC 6538. As to the method:
as §2, §3, §4, §5, §6, §7, §8, §9

Series [6] in a line: Cytotoxic effects on immune cells obtained from mouse bone marrow. Conditions: mouse immune cells originating from bone marrow, read-out: LC50. As to the method:
as §1

≈ marks a conversion by molar mass, not a printed value. Square brackets hold non-standard residues; d marks the D form. Ends that are not written are not given here. Peptide text beside a SMILES is read from it.

For “ALWKTLLKKVGKVAGKAVLNAVTNMANQNE-OH [DA2NE]”, the “death of immune cells” value in series [1] is on record as “induce the death of immune cells at a concentration of 12.5 µM with a comparable efficacy to DA2N”. The MBC stood at 50 µM in series [2], 1.6 µM in series [3], 3.1 µM in series [4] and 12.5 µM in series [5]. The MIC in series [2] is on record as 12.5 µM; in series [3], 0.8 µM; in series [4], 3.1 µM; in series [5], 3.1 µM.
Take ALWKTLLKKVGKVKGKAVLNAVTNMANQN [A14K]: the MBC in series [2] is recorded as greater than 50 µM; in series [3], 1.6 µM; in series [4], 12.5 µM; in series [5], 50 µM. Further, the MIC in series [2] is given as greater than 50 µM; in series [3], 1.6 µM; in series [4] it was 12.5 µM; in series [5] it was 25 µM.
On to ALWDTLLKKVGKVAGKAVLNAVTNMANQN [K4D], for which the minimum bactericidal concentration (MBC) in series [2] was determined as 50 µM; in series [3] it was 12.5 µM; in series [4] it was 25 µM; in series [5] it was 12.5 µM. In addition, the MIC worked out at 50 µM in series [2], 12.5 µM in series [3], 25 µM in series [4] and 12.5 µM in series [5].
As to `CSCC[C@@H](NC(=O)[C@@H](CC(N)=O)NC(=O)[C@H](NC(=O)[C@H](NC(=O)[C@@H](C)NC(=O)[C@@H](CC(N)=O)NC(=O)[C@@H](CC(C)C)NC(=O)[C@H](NC(=O)[C@@H](C)NC(=O)[C@@H](CCCCN)NC(=O)CNC(=O)[C@@H](C)NC(=O)[C@H](NC(=O)[C@@H](CCCCN)NC(=O)CNC(=O)[C@H](NC(=O)[C@@H](CCCCN)NC(=O)[C@@H](CCCCN)NC(=O)[C@@H](CC(C)C)NC(=O)[C@@H](CC(C)C)NC(=O)[C@H](NC(=O)[C@@H](CCCCN)NC(=O)[C@@H](Cc1c[nH]c2ccccc12)NC(=O)[C@@H](CC(C)C)NC(=O)[C@@H](C)N)[C@H](C)O)C(C)C)C(C)C)C(C)C)C(C)C)[C@H](C)O)C(=O)N[C@H](C)C(=O)N[C@H](CC(N)=O)C(=O)N[C@H](CCC(N)=O)C(=O)N[C@H](CC(N)=O)C(=O)N[C@H](CCC(=O)O)C(=O)N[C@H](CCC(N)=O)C(=O)O` [DA2NEQ (D), dAdLdWdKdTdLdLdKdKdVdGdKdVdAdGdKdAdVdLdNdAdVdTdNdMdAdNdQdNdEdQ] (H-[dA][dL][dW][dK][dT][dL][dL][dK][dK][dV]G[dK][dV][dA]G[dK][dA][dV][dL][dN][dA][dV][dT][dN][dM][dA][dN][dQ][dN][dE][dQ]-OH; N-terminus and C-terminus assumed), the minimal bactericidal concentration (MBC) is reported as 12.5 µM (≈ 41.7 µg/mL) in series [2], 0.8 µM (≈ 2.67 µg/mL) in series [3], 3.1 µM (≈ 10.4 µg/mL) in series [4] and 1.6 µM (≈ 5.34 µg/mL) in series [5]. Moreover, the MIC in series [2] is 12.5 µM (≈ 41.7 µg/mL); in series [3], 0.8 µM (≈ 2.67 µg/mL); in series [4], 1.6 µM (≈ 5.34 µg/mL); in series [5], 1.6 µM (≈ 5.34 µg/mL).
Gramicidin [reference compound]: the MBC in series [2] is reported as 0.8 µM; in series [3], greater than 100 µM; in series [4], greater than 100 µM; in series [5] it was greater than 50 µM. Besides, the MIC in series [2] was 0.8 µM; in series [3] it was greater than 100 µM; in series [4] it was greater than 100 µM; in series [5] it was greater than 50 µM.
In the case of ALWKTLLKKVGKVAGKAVLNAVTNAANQN [M25A], the MBC in series [2] was 12.5 µM; in series [3], 0.8 µM; in series [4] it was 3.1 µM; in series [5] it was 3.1 µM. Also, the MIC came to 12.5 µM in series [2], 0.8 µM in series [3], 3.1 µM in series [4] and 3.1 µM in series [5].
As to ALWKTLAKKVGKVAGKAVLNAVTNMANQN [L7A], the MBC in series [2] came out at 6.3 µM; in series [3] it was 0.8 µM; in series [4], 1.6 µM; in series [5], 3.1 µM. Moreover, the MIC in series [2] is given as 6.3 µM; in series [3], 0.8 µM; in series [4], 1.6 µM; in series [5], 3.1 µM.
In the case of ALWKTLLKKVGPVAGKAVLNAVTNMANQN [K12P], the MBC in series [2] was greater than 50 µM; in series [3], 6.3 µM; in series [4], 12.5 µM; in series [5], 6.3 µM. The MIC in series [2] is on record as greater than 50 µM; in series [3], 6.3 µM; in series [4] it was 12.5 µM; in series [5], 6.3 µM.
For “ALWKTLLKKVGKVAGKAVLNAVTNMANQN-NH2 [DA2Na]”, the CC50 at 2 hours in series [6] was determined as 3.75 µM. For the same compound, the MBC in series [2] is 3.1 µM; in series [3], 0.8 µM; in series [4] it was 1.6 µM; in series [5], 1.6 µM. The MIC in series [2] was 3.1 µM; in series [3] it was 0.8 µM; in series [4], 1.6 µM; in series [5] it was 0.8 µM.
For the compound ALWKTLLKKVGAVAGKAVLNAVTNMANQN [K12A], the CC50 at 2 hours in series [6] came out at 6.5 µM. Moreover, the MBC in series [2] is listed as 12.5 µM; in series [3], 1.6 µM; in series [4], 6.3 µM; in series [5], 6.3 µM. The MIC was 12.5 µM in series [2], 1.6 µM in series [3], 6.3 µM in series [4] and 3.1 µM in series [5].
For ALWKTLLKKVGKAAGKAVLNAVTNMANQN [V13A], the MBC in series [2] turned out to be 50 µM; in series [3], 1.6 µM; in series [4], 6.3 µM; in series [5], 12.5 µM. Also, the MIC in series [2] was 50 µM; in series [3] it was 1.6 µM; in series [4] it was 6.3 µM; in series [5], 6.3 µM.
On to ALWKTLLKKVGKVDGKAVLNAVTNMANQN [A14D], for which the MBC in series [2] is listed as greater than 50 µM; in series [3], 6.3 µM; in series [4], greater than 50 µM; in series [5] it was greater than 50 µM. The MIC is greater than 50 µM in series [2], 6.3 µM in series [3], 50 µM in series [4] and greater than 50 µM in series [5].
